Here are results for 15 compounds from article PMC5342526, “Identification of Bisindolylmaleimide IX as a potential agent to treat drug-resistant BCR-ABL positive leukemia” (Oncotarget, 2016).

Like-named read-outs stand apart in the source and are kept apart here.

The test system of one data set is p53 in primary MEFs. Kind of data set: p53 protein level by western blot (screen). (In western blotting, separated proteins are transferred to a membrane and probed.)
Data set [1] relates to B-Raf in BCR-ABL positive BaF3 cells. Kind of data set: B-Raf phosphorylation, western blot. It is filed as cell-based, murine. The procedure: Activation and expression of Erk, Mek1, and Raf were determined by western blot. B. Inhibition of Erk decreased the cell survival rates in BaF3 cells expressing BCR-ABL compared to control cells. […] C. […] N=3. Right panel: Western blot results showing that B-Raf was knocked down in these cells.

Data set [2] deals with K562, HL-60, MCF7, U251, AGS, MGC-803, U2OS and Saos-2 cells. It is filed as cell-based. The text has this:
The reference wavelength was 630 nm.
www.impactjournals.com/oncotarget/ Oncotarget, Supplementary Materials 2016 […]

A further data set deals with γH2AX foci in MEFs. Kind of data set: γH2AX DNA damage foci, immunofluorescent staining. It counts as cell-based, mouse. Particulars: 2.5 μM, 4 hrs. The procedure:
MEFs or HCT116 cells were cultured on cover slips while Baf3 cells were cultured on slides coated by 0.1mg/ml poly-L-lysine, washed with phosphate-buffered saline (PBS) twice, and then fixed in 4% paraformaldehyde (PFA), which were permeabilized with 0.1% Triton X in PBS for 30 minutes at room temperature. The primary antibodies were diluted in PBS with 1% BSA (1:200). The slides were blocked (1% BSA in PBS) for 60 minutes at room temperature, incubated with primary antibodies overnight at 4°C, and followed by secondary antibody incubation for 60 min at RT. The slides were then mounted and observed under confocal microscope (Leica, Germany). Antibodies against γH2AX were from Bethyl Corporation.

Data set [3] deals with tumors derived from HCT116. Kind of data set: HCT116 carcinoma xenograft in nude mice. Particulars: 2.5mg/kg for 7 days. It counts as in vivo, mouse. On the procedure:
Male BALB/cASlac-nude mice (4-week-old) were purchased from Shanghai Slac Laboratory Animal C. LTD. The mice were kept in the SPF mouse facility for 1 week before being inoculated with HCT116 cells. HCT116 cells were harvested by trypsinization, counted and resuspended in PBS at the concentration of 5×10^7/ml. We injected subcutaneously 3×10^6 cells to BALB/cASlac nude mice's back. After 2 weeks, the mice were divided into 3 groups (6 mice per group) and were treated with 5-Iodotubercidin (Itu), Bisindolylmaleimide IX or solvent (PBS). The mice were weighed and the size of tumor measured. The length (L) and width (W) of the tumor were measured with a digital caliper and expressed as tumor volume (0.5L×W^2, mm^3).

In a further data set the test system is K562 cells. Kind of data set: Wst-1 cell survival assay. Particulars: K562, Wst-1.

Method for K562 cells: We then evaluated the cytotoxic effect of Bisindolylmaleimide IX in MEFs and HCT116 cells. Different doses of Bisindolylmaleimide IX were applied to the cell cultures and cell survival rates and IC50 were determined with Wst-1 assay.
To measure cell survival rates after Bisindolylmaleimide IX treatment, cells were plated at 1×10^4 in 96 well plates and cultured for overnight, which were then treated with Bisindolylmaleimide IX for 48 hrs. Cell proliferation reagent WST-1 (Roche) was added to each well and was further incubated for 4 hrs at 37°C. The absorbance was measured against a control using microplate reader at 440 nm. The reference wavelength was 630 nm.
Method for p53 in primary MEFs: Cells were lysed in TNEN buffer (50 mM Tris, 150 mM NaCl, 5 mM EDTA, 0.5% NP-40, and 0.1% Triton X-100) supplemented with 1 mM NaF, Na2VO3, 1 mM PMSF, and 1 μg/ml of aprotonin, leupeptin, and pepstatin A. Protein concentrations were determined using a Bio-Rad assay. Proteins were resolved by SDS-PAGE and transferred to polyvinylidene difluoride membranes (Millipore).

As to `CCCCCCCCCCCCC/C=C/[C@@H](O)[C@@H](N)CO` [Sphingosine], the p53 protein up-regulation result in the data set with p53 in primary MEFs was “failed to up-regulate p53 in MEFs”.
For `COc1cc([C@@H]2c3cc4c(cc3[C@@H](O[C@@H]3O[C@@H]5CO[C@@H](c6cccs6)O[C@H]5[C@H](O)[C@H]3O)[C@H]3COC(=O)[C@H]23)OCO4)cc(OC)c1O` [teniposide], the “phosphorylation of B-Raf” value in data set [1] is “did not affect the phosphorylation of B-Raf”. Also, the “survival of BCR-ABL positive BaF3 cells compared with control cells” value in the data set with BCR-ABL BaF3 cells (24 hrs, Wst-1) is “increased survival”.
As to `Cc1cc(O)c2c(=O)c3c(O)cc(O)c4c5c(O)cc(O)c6c(=O)c7c(O)cc(C)c8c1c2c(c34)c(c78)c65` [Hypericin], the p53 protein up-regulation entry in the data set with p53 in primary MEFs was “failed to up-regulate p53 in MEFs”.
The same measure, in the same setting: with `CCCCCCCCCCCCCCCC(=O)OC(CC(=O)O)C[N+](C)(C)C.[Cl-]` (racemic) [Palmitoyl-DL-carnitine Cl] the entry was “failed to up-regulate p53 in MEFs”.
For `Cc1ccc(NC(=O)c2ccc(CN3CCN(C)CC3)cc2)cc1Nc1nccc(-c2cccnc2)n1` [Imatinib], the “cytotoxic effects across cell lines (in words)” value in data set [2] is on record as “specificity to BCR-ABL positive cells”.
Turning to `CN(C)CCCn1cc(C2=C(c3c[nH]c4ccccc34)C(=O)NC2=O)c2ccccc21` [Bisindolylmaleimide I], the γH2AX foci formation entry with γH2AX foci in MEFs is on record as “minimal numbers of foci”. The p53 protein up-regulation entry in the data set with p53 in primary MEFs is given as “failed to up-regulate p53 in MEFs”.
As for `Nc1ncnc2c1c(I)cn2[C@@H]1O[C@H](CO)[C@@H](O)[C@H]1O` [5-Iodotubercidin], the tumor growth result in data set [3] is on record as “greatly inhibited tumor growth”. For the same compound, in the data set with p53 in primary MEFs, the p53 protein up-regulation result was “up-regulate p53 at the protein levels”.
Take `COc1cccc2c1C(=O)c1c(O)c3c(c(O)c1C2=O)C[C@@](O)(C(=O)CO)C[C@@H]3O[C@H]1C[C@H](N)[C@H](O)[C@H](C)O1` [doxorubicin]: in data set [1], the “phosphorylation of B-Raf” value is listed as “did not affect the phosphorylation of B-Raf”.
In the case of `NCCNS(=O)(=O)c1cccc2cnccc12` [H-9], the p53 protein up-regulation entry with p53 in primary MEFs is recorded as “failed to up-regulate p53 in MEFs”.
Same read-out and setting: with `CC1CNCCN1S(=O)(=O)c1cccc2cnccc12` (stereo not drawn) [H-7] the entry was “failed to up-regulate p53 in MEFs”; with `CC(=O)c1c(O)c(C)c(O)c(Cc2c(O)c3c(c(C(=O)/C=C/c4ccccc4)c2O)OC(C)(C)C=C3)c1O` [Rottlerin], “failed to up-regulate p53 in MEFs”; with `COCc1cc(O)c(O)c(O)c1-c1c(COC)cc(O)c(O)c1O` [HBDDE], “failed to up-regulate p53 in MEFs”.
In the case of `Cn1cc(C2=C(c3cn(C4CCN(Cc5ccccn5)CC4)c4ccccc34)C(=O)NC2=O)c2ccccc21` [Enzastaurin], in the data set with γH2AX foci in MEFs, the γH2AX foci formation result was “minimal numbers of foci”. Besides, the “cytotoxic effect (in words)” value in the data set with BCR-ABL BaF3 cells (BCR-ABL BaF3, 24 hrs, compared among bisindolylmaleimide derivatives) is “modest cytotoxic effect”. Moreover, the “cytotoxicity (in words)” value in the data set with K562 cells is on record as “modest cytotoxic effect”.
`N#CC(=C(/N)Sc1ccccc1N)/C(C#N)=C(/N)Sc1ccccc1N` [U0126]: the “cell death rates in BCR-ABL expressing BaF3 cells versus control cells” value with BCR-ABL BaF3 cells (inhibition of Erk) is “increased cell death rates”.
Take `CN[C@@H]1C[C@H]2O[C@@](C)([C@@H]1OC)n1c3ccccc3c3c4c(c5c6ccccc6n2c5c31)C(=O)NC4` [staurosporine]: the “cytotoxic effects across cell lines (in words)” value in data set [2] (24 hrs, Wst-1) is listed as “strong cytotoxic effects in almost all these cell lines”. Moreover, the p53 protein up-regulation result in the data set on p53 in primary MEFs is recorded as “failed to up-regulate p53 in MEFs”.
